# Test results: paper PMC4436593, “Endoplasmic reticulum stress-independent activation of unfolded protein response kinases by a small molecule ATP-mimic” (eLife, 2015)
# Tests used:
# [1] = molecular target: T1, PERK (535–1093 Δ660–868) (Homo sapiens, UniProt Q9NZJ5, DEL660-868); assay: In vitro PERK activation assay (rate of eIF2α phosphorylation by dephosphorylated tag-free PERK cytosolic domain); format: biochemical
# T1 construct: GST (N, cleaved yes); made in house; host or cells: E. coli BL21 star (DE3), co-expressed with lambda phosphatase
# T1 sequence (Q9NZJ5 with tags, fused parts or gaps DEL660-868): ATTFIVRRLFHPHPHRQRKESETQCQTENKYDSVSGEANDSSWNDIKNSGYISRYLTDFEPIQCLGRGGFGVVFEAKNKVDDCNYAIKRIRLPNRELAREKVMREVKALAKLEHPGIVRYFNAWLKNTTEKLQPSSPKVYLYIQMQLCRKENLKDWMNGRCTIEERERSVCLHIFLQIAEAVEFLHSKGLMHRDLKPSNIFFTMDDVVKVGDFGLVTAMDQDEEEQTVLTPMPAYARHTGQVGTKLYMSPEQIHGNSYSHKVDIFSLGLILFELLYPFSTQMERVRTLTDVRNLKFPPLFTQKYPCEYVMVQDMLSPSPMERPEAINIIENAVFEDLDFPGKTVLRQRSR
# Source text: To address directly whether PERK activation resulted from IPA binding to PERK itself, we recombinantly expressed the cytosolic portion of human PERK and eIF2α, the only known PERK substrate, and reconstituted the phosphorylation reaction in vitro. To this end, the cytosolic portion of PERK was dephosphorylated and then proteolytically severed and chromatographically separated from its glutathione S-transferase tag, known to promote-constitutive multimerization. The resulting PERK cytosolic fragment was responsive to activation, by contrast to the constitutively active, phosphorylated PERK-GST fusion protein assayed in Figure 4—figure supplement 1.
# Full-length cytosolic human PERK was codon-optimized for E. coli expression by Genewiz Inc. A construct was then cloned into a Pgex-6p-2 vector for expression using two rounds of In-Fusion cloning (Clontech) (535–1093 Δ660–868). The cytosolic portion of PERK, lacking the unstructured loop region (amino acids 535–1093 Δ660–868) was then co-expressed with a tagless lambda phosphatase to produce a fully dephosphorylated PERK protein in BL21 star (DE3) (Life Technologies) ([Dar et al., 2008]). Cells were grown to an OD600 of 0.5 before induction with 0.1 mM IPTG at 15°C for 25 hr. Cells were harvested and lysed using AVESTIN Emulsiflex-C3 in a buffer containing 50 mM Tris-HCl, pH 8.0, 500 mM NaCl, 10% glycerol, 5 mM TCEP (buffer A), and EDTA-free COMPlete protease inhibitor cocktail (Roche). Lysate was cleared by centrifugation at 100,000×g before batch binding to a GST-Sepharose resin. The resin was washed 5× times with buffer A, and on-column tag cleavage was preformed using PreScission protease (GE Healthcare). The protein was loaded onto a HiTrap Q HP column to remove remaining protease. The PERK (535–1093 Δ660–868) protein was then concentrated and fractionated on a Superdex 200 GL (GE Healthcare) to remove uncleaved GST-PERK protein.
# PERK activation was measured using PERK (535–1093 Δ660–868) in a buffer containing 20 mM Tris-HCl, 150 mM NaCl, 4 mM MgCl2, 5 mM TCEP, 1% glycerol, pH 8.0. PERK concentration was 1 μM, and activity was measured at 30°C. PERK was pre-incubated with 50 μM of cold ATP in the presence or absence of IPA or IPAx. The reaction was then initiated by adding S. cerevisiae eIF2α (1–180) and 0.2 mCi γ-[^32P]-ATP. The reaction was monitored over a time course of 30 min, during which 1/6 of the reaction volume was removed at 0.5, 1, 5, 10, 20, and 30 min and stopped in Laemmli buffer supplemented with 50 mM EDTA. […] Gels were quantified using ImageQuant software and data were processed using SigmaPlot software package. Rates were determined using non-linear regression. Experiments were performed 3 times, and mean errors were determined.
# [2] = test system: PERK and eIF2α phosphorylation in HEK293T cells; assay: PERK mobility shift and eIF2α phosphorylation by immunoblotting in HEK293T cells; format: cell-based
# Method: To evaluate effects of IPA on the PERK branch, we measured the phosphorylation state of PERK and eIF2α by Western blotting. […] We also monitored PERK activation by phosphorylation of eIF2α, detected with a phospho-eIF2α-specific antibody (Figure 3C).
# Cells were lysed in 50 mM Tris-HCl, 2% SDS, 10% glycerol, 0.01% bromophenol blue, pH 6.8 supplemented with phosphatase inhibitors (Sigma) and protease inhibitors (Roche). 30 μg to 50 μg of total protein was loaded on each lane of 8% or 10% SDS-PAGE gels. The separated proteins were then transferred onto nitrocellulose membranes for immunoblotting. The following antibodies and dilutions were used: anti-β-actin 1:10,000 (A5441, Sigma), anti-total PERK at 1:1000 (C33E10, Cell Signaling Technology), anti-phospho eIF2α at 1:1000 (3597S, Cell Signaling Technology), anti-total eIF2α at 1:1000 (L57A5, Cell Signaling Technology). After overnight incubation with primary antibody, membranes were washed in PBS with 0.05% Tween and incubated in HRP-coupled secondary antibody anti-rabbit (611–1302, Rockland) or anti-mouse (610–1302, Rockland) diluted at 1:5000 in wash buffer. Immunoreactive bands were detected by chemiluminescence.
smiles,measurement,setting,value
CSc1ccc(NC(=O)Nc2ccc(Nc3nccc(Nc4cc(C5CC5)[nH]n4)n3)cc2)cc1 [IPA],fold change in rate of eIF2α phosphorylation by PERK (maximal activation),"[1]; 0.5 μM (500 nM) IPA, normalized to DMSO control, PERK 1 μM",3.3 fold
same,fold change in rate of eIF2α phosphorylation by PERK (inhibitory concentration),"[1]; 3 μM IPA, normalized to DMSO control",0.31 fold
same,Tm activation of PERK in the presence of compound,[2]; 4 μM IPA + Tm 2 µg/ml,Tm addition did not activate PERK
same,"PERK phosphorylation (mobility shift), paralleled by eIF2α phosphorylation","[2]; 4 hr, 0.1, 0.5, and 1 µM",induced a shift in the mobility of PERK
same,"PERK phosphorylation (mobility shift), paralleled by eIF2α phosphorylation","[2]; 4 hr, 2 and 4 μM",severely diminished or not detectable
same,reversibility of PERK inhibition (wash-out),[2]; IPA wash-out then Tm,reversible
CSc1ccc(NC(=O)Nc2ccc(Nc3nccc(Nc4cc(C5CC5)n(C)n4)n3)cc2)cc1 [IPAx],effect on the rate of PERK activity,[1]; IPAx 20 μM,showed no effect
same,PERK activation in vitro,"[1]; IPAx 0.3 and 0.5 μM, normalized to DMSO control",No activation was observed
same,PERK or eIF2α phosphorylation,"[2]; 4 hr, 1 µM",did not stimulate PERK or eIF2α phosphorylation
